For 66 compounds, LogP results are on record in US12642270B2, “Substituted thiophene carboxamides, thiophene carboxylic acids and derivatives thereof” (Bayer Aktiengesellschaft, priority 2019, dated 2026).

Each structure is given as a SMILES string.

The first series is described as follows: Log P by HPLC on reversed phase columns (EEC directive 79/831 Annex V.A8). Conditions: LogP method [a]; compounds of formula (I), Table 1.1. Format: physicochemical. The essentials: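 Values come from retention times calibrated against alkan-2-ones (3–16 carbons) by linear interpolation, using reversed-phase LC-UV per EEC directive 79/831 Annex V.A8. Acetonitrile gradient 10–95% with 0.1% formic acid [a], 0.001 M ammonium acetate [b] or 0.1% phosphoric acid [c]; several values within one method separated by "+".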
Take `COC(=O)C(CC(F)F)NC(=O)c1cc(Br)c(Cl)s1` (stereo not drawn) [1.0438]: the LogP is 3.07^[a].
On to `CCOC(=O)C1(NC(=O)c2cc(Cl)c(Br)s2)CC1` [1.0454], for which the LogP was 2.80^[a].
In the case of `O=C(NC1(C(=O)O)COC1)c1sc(Br)c(Br)c1F` [1.0489], the LogP was 1.98^[a].
Same read-out and setting: under `COC(=O)C(CC(F)F)NC(=O)c1cc(Cl)c(Br)s1` (stereo not drawn) [1.0442] stands 2.96^[a]; under `CCOC(=O)C(Cc1ccccc1)NC(=O)c1cc(Cl)c(Br)s1` (stereo not drawn) [1.0443], 4.01^[a].
Consider `CCOC(=O)C(CCSC)NC(=O)c1cc(C#N)c(Br)s1` (stereo not drawn) [1.0404], for which the LogP was 3.03^[a].

The same series, now with this note: method [a].
As for `CCOC(=O)C(COC)NC(=O)c1sc(Br)c(Cl)c1C` (stereo not drawn) [1.0138], the LogP is 3.42^[a].
In the case of `CC(C)(C)OC(=O)C1(NC(=O)c2sc(Br)c(Br)c2F)CCC1` [1.0925], the LogP was 4.78^[a].
As for `N#CCNC(=O)c1sc(Br)c(Br)c1C#N` [1.0802], the LogP was 2.11^[a].
Consider `CCOC(=O)C(CSC)NC(=O)c1sc(Br)c(Br)c1Cl` (stereo not drawn) [1.0550], for which the LogP was 4.32^[a].
As to `CCOC(=O)C(C)NC(=O)c1sc(Br)c(Br)c1F` (stereo not drawn) [1.0133], the LogP is 3.41^[a].
As to `O=C(NC1(C(=O)OC2CCCCC2)CCC1)c1sc(Br)c(Br)c1Cl` [1.0918], the LogP was 5.89^[a].
For the compound `O=C(NC1(C(=O)O)CC1)c1cc(Br)c(Cl)s1` [1.0169], the LogP was 2.02^[a].
On the same count and under the same terms, as for `CC(C)(C)OC(=O)C1(NC(=O)c2sc(Br)c(Br)c2Cl)CC1` [1.0898], the figure is 5.28^[a]; as for `O=C(NC1(C(=O)OC2CCC2)CCC1)c1sc(Cl)c(Cl)c1Br` [1.0889], 4.93^[a]; as for `CCCCOC(=O)C1(NC(=O)c2sc(Br)c(Br)c2F)CCC1` [1.0926], 4.74^[a].
For the compound `CCOC(=O)C1(NC(=O)c2sc(Cl)c(Br)c2F)CC1` [1.0636], the LogP is 3.10^[a].
On the same count and under the same terms, under `CCOC(=O)C1(NC(=O)c2sc(C#N)c(Br)c2C)CCC1` [1.0244] stands 3.07^[a].
As to `CCOC(=O)C1(NC(=O)c2sc(Cl)c(C#N)c2Br)CC1` [1.0655], the LogP was 2.69^[a].
In the case of `COC(=O)C(NC(=O)c1sc(Cl)c(Br)c1Br)C1CC1` (stereo not drawn) [1.0211], the LogP was 3.89^[a].
For `CCOC(=O)C(Cc1ccccc1)NC(=O)c1sc(C#N)c(Cl)c1Cl` (stereo not drawn) [1.0577], the LogP is 4.11^[a].
With `COC(=O)[C@H](CCSC)NC(=O)c1sc(Br)c(Br)c1F` [1.0159], the LogP is 3.62^[a].
`CCOC(=O)CCNC(=O)c1sc(Br)c(Br)c1Cl` [1.0143]: the LogP is 3.53^[a].
Consider `COC(=O)CNC(=O)c1sc(C)c(Cl)c1Cl` [1.0564], for which the LogP is 2.45^[a].
Still for that read-out and setting: as for `CCOC(=O)[C@@H](Cc1ccccc1)NC(=O)c1sc(Br)c(Br)c1F` [1.0153], the figure is 4.55^[a].
As for `N#CCNC(=O)c1sc(Cl)c(Br)c1Br` [1.0206], the LogP was 2.72^[a].
`NC(=O)CNC(=O)c1sc(Br)c(Br)c1Cl` [1.0638]: the LogP is 1.98^[a].
Same read-out and setting: under `COC(=O)[C@H](CC(=O)OC(C)(C)C)NC(=O)c1sc(Cl)c(Cl)c1Br` [1.0552] stands 4.59^[a]; under `COC(=O)C(NC(=O)c1sc(Br)c(Br)c1Cl)C1CC1` (stereo not drawn) [1.0264], 3.84^[a].
For the compound `CCOC(=O)CCNC(=O)c1sc(Br)c(Cl)c1Cl` [1.0196], the LogP is 3.47^[a].
For the compound `CCOC(=O)C(CCSC)NC(=O)c1sc(Br)c(Br)c1F` (stereo not drawn) [1.0812], the LogP is 4.05^[a].

Still in this series, the particulars now being: method [a]: LC-UV, acidic range, 0.1% formic acid in water and acetonitrile.
On to `CCC(C)C(NC(=O)c1sc(Br)c(Br)c1F)C(=O)O` (stereo not drawn) [I.0235], for which the LogP was 3.40^[a].
Regarding `N#Cc1c(Cl)sc(C(=O)O)c1Cl` [II.002], the LogP is 1.59^[a].
For the compound `O=C1CC(NC(=O)c2cc(Cl)c(Br)s2)CN1` (stereo not drawn) [I.0221], the LogP is 1.71^[a].
Take `Cc1sc(C(=O)OCC(C)C)c(F)c1Br` [II.024]: the LogP was 4.77^[a].
Consider `O=C(O)c1sc(C(F)F)c(Br)c1Br` [II.099], for which the LogP was 2.51^[a].
As for `O=C(O)c1sc(Br)c(Br)c1C(F)F` [II.006], the LogP is 2.46^[a].
On to `Cc1c(C(=O)NC2CCOC2=O)sc(Br)c1Cl` (stereo not drawn) [I.0825], for which the LogP was 2.45^[a].
Take `Cc1c(C(=O)O)sc(F)c1Cl` [II.101]: the LogP was 2.45^[a].
Still for that read-out and setting: as for `CCOC(=O)c1cc(Cl)c(C#N)s1` [II.072], the figure is 3.10^[a]; as for `N#Cc1sc(C(=O)O)cc1Cl` [II.034], 1.33^[a]; as for `O=C(NC1CCOC1=O)c1sc(Cl)c(Br)c1Cl` (stereo not drawn) [I.0949], 2.56^[a].
`Cc1c(Cl)sc(C(=O)O)c1Cl` [II.074]: the LogP was 2.76^[a].
For the compound `Cc1sc(C(=O)O)c(F)c1Br` [II.013], the LogP was 2.08^[a].
Same read-out and setting: as for `O=C(O)c1sc(F)c(Br)c1Cl` [II.076], the figure is 2.19^[a].

The same series, now with this note: method [a]; compounds of formula (I), Table 1.1.
As to `CCOC(=O)C(CCSC)NC(=O)c1sc(I)c(Br)c1C` (stereo not drawn) [1.0103], the LogP is 3.96^[a].
The same measure, in the same setting: as for `Cc1c(C(=O)NC2(C#N)CCC2)sc(Cl)c1Br` [1.0107], the figure is 4.53^[a]; as for `Cc1c(C(=O)NC(C#N)c2ccccc2)sc(Cl)c1Br` (stereo not drawn) [1.0109], 3.85^[a]; as for `CCOC(=O)C1(NC(=O)c2sc(I)c(Br)c2C)CCC1` [1.0099], 3.71^[a].
For the compound `COC(=O)C(CC(F)F)NC(=O)c1sc(Br)c(Cl)c1C` (stereo not drawn) [1.0077], the LogP is 3.29^[a].

Still in this series, the particulars now being: method marked [a].
Consider `CCOC(=O)CNC(=O)c1sc(C#N)c(Br)c1Br` [1.0739], for which the LogP was 2.75^[a].
The same measure, in the same setting: under `COC(=O)CNC(=O)c1sc(F)c(Cl)c1C` [1.0296] stands 2.23^[a].
Turning to `COC(=O)C(NC(=O)c1sc(Cl)c(Cl)c1F)C1CC1` (stereo not drawn) [1.0346], the LogP was 3.36^[a].
On to `COC(=O)C(C)(C)NC(=O)c1sc(Cl)c(Cl)c1C#N` [1.0684], for which the LogP was 2.73^[a].
Turning to `CCOC(=O)C(COC)NC(=O)c1sc(Cl)c(Cl)c1Br` (stereo not drawn) [1.0777], the LogP is 3.94^[a].
Turning to `N#CCNC(=O)c1sc(Br)c(Br)c1C(F)(F)F` [1.0365], the LogP is 2.61^[a].
Regarding `CCOC(=O)C(Cc1ccccc1)NC(=O)c1sc(Br)c(Br)c1C(F)(F)F` (stereo not drawn) [1.0377], the LogP was 4.31^[a].
As to `CCOC(=O)C(CC(C)C)NC(=O)c1sc(Br)c(Br)c1C(F)F` (stereo not drawn) [1.0362], the LogP is 4.45^[a].
Take `COC(=O)C1(NC(=S)c2sc(Br)c(Br)c2Cl)CC1` [1.0333]: the LogP was 4.11^[a].
`CCOC(=O)C1(NC(=O)c2sc(Br)c(Cl)c2C)CN(C(=O)OC(C)(C)C)C1` [1.0277]: the LogP was 4.19^[a].
As to `COC(=O)C1(NC(=O)c2sc(Br)c(C#N)c2Cl)CCC1` [1.0674], the LogP was 2.89^[a].

The series is the same for the next values; noted with them: method marker [a] given with each value; Table 1.1, compounds of formula (I).
With `N#CC1(NC(=O)c2sc(Cl)c(Cl)c2Br)CCC1` [1.1014], the LogP is 3.37^[a].
As for `O=C(NC1(C(=O)O)CCC1)c1sc(Cl)c(Cl)c1Br` [1.1017], the LogP was 2.95^[a].
On to `O=C(CNC(=O)c1sc(Br)c(Br)c1Cl)OC1CCCC1` [1.0988], for which the LogP was 4.28^[a].
Take `Cc1c(C(=O)NC2(C(=O)OC3CCCC3)CC2)sc(C#N)c1Br` [1.0980]: the LogP was 3.36^[a].
In the case of `CCOC(=O)CN(C(=O)c1sc(Cl)c(Cl)c1Br)C1CC1` [1.0937], the LogP was 3.81^[a].
